For data set [1], the system named is passive cutaneous anaphylaxis (PCA). The experiment in a line: Passive cutaneous anaphylaxis (PCA) in the rat with homologous antibodies (method of Goose and Blair). As to conditions: 0.5 h, inhibition of spots areas, 30 minutes after challenge. Format: in vivo. An excerpt: (§1) The novel compounds of the present invention are characterized by high antianaphylactic and antibronchospastic activity and by a low toxicity. The LD50 of the novel piperazine derivatives has been determined in the mouse, both ip and per os, following the method described by C. S. Weil, Biometrics, 8, 249 (1952). In order to evaluate the antianaphylactic activity of said novel compounds, the method of Goose and Blair was followed, in which passive cutaneous anaphylaxis (PCA) was induced in the rat with homologous antibodies [Immunology, 16, 749, (1969)].
Female albino rate were immunized intramuscularly with egg albumin and intraperitoneally with Haemophylus pertussis vaccine. Twelve days after treatment, the animals were bled and sera thus obtained were injected intradermally into another group of rats. Twenty-four hours later, the animals were challenged with an i.v. solution of ovoalbumin and Evans blue dye, and sacrificed after 30 minutes. The test drugs were given by different routes of administration and at different times before the challenge. Inhibition of spots areas (ED50) was determined.
(§2) In the Table which follows, the results obtained utilizing the above tests are reported. The LD50 and the DE50 in the PCA test are expressed in […]. The DE50 for the antibronchospastic activity (BSP) is expressed in μm/kg i.v. (bronchospasm induced by histamine (H) and acetylcholine (A)). In the TXA2 test, (C) is the concentration in μg/ml, whereas (I%) denotes the maximal inhibition percentage. In the PLA test, the DE50 is expressed in μM/kg i.v. (evaluated 5 and 10 minutes after administration).

Data set [2] can be described thus: Acute toxicity LD50 in the mouse (method of Weil). Conditions: in vivo.
Source text: as §1, §2

In data set [3] the test system is bronchospasm induced by acetylcholine. Description: Inhibition of bronchospasm (BSP) induced by acetylcholine in anaesthetized guinea pig (Konzett and Roessler). Format: in vivo. As to conditions: Cavia porcellus, iv, 1 min, acetylcholine 2.5-10 μg/kg i.v., one minute after injection of drug. As for the experimental part:
(§3) The antibronchospastic activity was determined according to the method of Konzett and Roessler, Arch., Exp. Path. Pharmakol., 195, 71 (1940), entailing the inhibition of bronchospasm induced in anaesthesized guinea pig by histamine and acetylcholine. For this purpose, the bronchospasms were induced by administering intravenously to the animals 0.5-25 μg/kg of hystamine or 2.5-10 μg/kg of acetylcholine. Inhibition (ED50) was determined one minute after injection of the drug under test.
as §2

In data set [4] the test system is bronchospasm induced by histamine. The experiment in a line: Inhibition of bronchospasm (BSP) induced by histamine in anaesthetized guinea pig (Konzett and Roessler). Format: in vivo. Conditions: Cavia porcellus, iv, 1 min, histamine 0.5-25 μg/kg i.v., one minute after injection of drug, read-out: BSP, ED50 H. As to the method:
as §3, §2

Data set [5] relates to passive lung anaphylaxis (PLA). The experiment in a line: Passive lung anaphylaxis (PLA): antigen induced bronchoconstriction in passively sensitized rat (method of Greenberg et al). Format: in vivo. Conditions: iv, i.v. As for the experimental part:
Inhibition of passive lung anaphylaxis (PLA) was studied in a model of antigen induced bronchoconstriction in sensitized rat, according to the method described by Greenberg et al, Can. J. Physiol. Pharmacol., 57, 48 (1979). Female albino rate were passively sensitized by intravenous injection of homologous anti-egg albumin serum. Twenty-four hours later the rats were anaesthetized with pentobarbital (35 mg/kg i.p.) and spontaneous respiration was arrested by administration of tubocurarine (0.75 mg/kg i.v.).
Bronchocostriction was induced by egg albumin intravenously administered and measured by the Konzett and Roessler method Arch. Exp. Path. Pharmakol., 195, 71, (1940). The compounds were injected intravenously one minute before antigen challenge. The inhibitory effect (ED50) was evaluated 5 and 10 minutes after i.v. administration of the drugs under test.
as §2

Another data set deals with TXA2. The experiment in a line: TXA2 inhibition in perfused guinea-pig lungs challenged with bradykinin (method of Berti et al). As to conditions: C = 10 μg/ml, bradykinin 0.25-0.5 μg. As for the experimental part:
The TXA2 inhibition was evaluated according to the method of Berti et al Brit. J. Pharmacol., 68, 467 (1980). Lungs from female or male guinea-pigs were perfused through the pulmonary artery with Krebs bicarbonate (5 ml/min, 37° C.). The pulmonary outflow superfused strips of rabbit mesenteric artery and rabbit aorta in cascade, in order to monitor TXA2 activity. These tissues were superfused with a mixture of receptor antagonist and indomethacin to […] their selectivity and sensitivity. Lungs were challenged with a single injection of bradykinin (0.25-0.5 μg) which is known to increase generation of TXA2 from the pulmonary tissue. The novel compounds of the invention were perfused at different concentrations through the lungs 30 and 60 minutes before agonists.
as §2

[6] abbreviates: 5 min, evaluated 5 minutes after administration, read-out: PLA, ED50 5'.
[7] abbreviates: 10 min, evaluated 10 minutes after administration, read-out: PLA, ED50 10'.

In general, ED50 refers to the midpoint of the dose-response relation. Usually LD50 stands for the dose at which mortality reaches 50%.

Where a name gives a salt, the structure may show the parent alone. Read-outs that look alike come from different tables or passages of the source.

`CN(C)c1cccc(NC(=O)CCN2CCN(C(c3ccccc3)c3ccccc3)CC2)c1` [Compound 2, 3-(4-benzhydryl-1-piperazinyl)-N,3-dimethylaminoophenylpropionamide trihydrochloride hemihydrate] came in with an ED50 in data set [1] greater than 69 µmol/kg. Also, the LD50 came to 260 µmol/kg in data set [2] (ip, read-out: LD50 ip) and 340 µmol/kg in data set [2] (po, per os, read-out: LD50 os).
Turning to `CN(C)c1ccc(NC(=O)CCN2CCN(C(c3ccccc3)c3ccccc3)CC2)cc1` [Compound 3, 3-(4-benzhydryl-1-piperazinyl)-N,4-dimethylaminophenylpropionamide], the median effective dose (ED50) in data set [3] came to 0.8 µmol/kg; in data set [4], 1.1 µmol/kg; in data set [1], 25 µmol/kg; in data set [5] (setting [6]) it was 0.02 µmol/kg; in data set [5] (setting [7]) it was 0.02 µmol/kg. Moreover, in data set [2] (po, per os, read-out: LD50 os), the LD50 was greater than 7000 µmol/kg.
The compound `CNC(=O)Nc1ccc(NC(=O)CCN2CCN(C(c3ccccc3)c3ccccc3)CC2)cc1` [Compound 7, 3-(4-benzhydryl-1-piperazinyl)-N,4-methylureidophenylpropionamide] showed an ED50 in data set [1] of 73 µmol/kg. In addition, the LD50 in data set [2] (ip, read-out: LD50 ip) was 1750 µmol/kg; in data set [2] (po, per os, read-out: LD50 os), greater than 5900 µmol/kg.
With `CN(C)c1ccc(NC(=O)CCCN2CCN(C(c3ccccc3)c3ccccc3)CC2)cc1` [Compound 8], the 50% effective dose (ED50) in data set [3] is greater than 3 µmol/kg; in data set [4], 1.1 µmol/kg; in data set [1] it was 10 µmol/kg; in data set [5] (setting [6]) it was 0.84 µmol/kg; in data set [5] (setting [7]), 0.84 µmol/kg. The LD50 in data set [2] (ip, read-out: LD50 ip) worked out at 230 µmol/kg; in data set [2] (po, per os, read-out: LD50 os) it was 430 µmol/kg.
For the compound `CNc1cccc(NC(=O)CCN2CCN(C(c3ccccc3)c3ccccc3)CC2)c1` [Compound 1, 3-(4-benzhydryl-1-piperazinyl)-N,3-methylaminophenylpropionamide], the ED50 in data set [4] was found to be 0.25 µmol/kg; in data set [1], 13 µmol/kg. Also, the LD50 amounted to 240 µmol/kg in data set [2] (ip, read-out: LD50 ip) and 580 µmol/kg in data set [2] (po, per os, read-out: LD50 os).
On to `CN(C(=O)CCN1CCN(C(c2ccccc2)c2ccccc2)CC1)c1cccc(N)c1` [Compound 6, 3-(4-benzhydryl-1-piperazinyl)-N,3-aminophenvl-N-methylpropionamide], for which, in the data set on TXA2, the “TXA2 I % (maximal inhibition percentage)” value is listed as 0.8%. Besides, the 50% effective dose (ED50) in data set [3] is 0.4 µmol/kg; in data set [4], 0.12 µmol/kg; in data set [1], 10 µmol/kg; in data set [5] (setting [6]) it was 0.65 µmol/kg; in data set [5] (setting [7]), 0.69 µmol/kg. The LD50 in data set [2] (ip, read-out: LD50 ip) was greater than 2330 µmol/kg; in data set [2] (po, per os, read-out: LD50 os) it was greater than 7000 µmol/kg.
Regarding `Nc1ccc(NC(=O)CCN2CCN(C(c3ccccc3)c3ccccc3)CC2)cc1` [Compound 5, 3-(4-benzhydryl-1-piperazinyl)-N,4-aminophenylpropionamide], the median effective dose (ED50) in data set [4] was determined as 0.23 µmol/kg; in data set [1], 28 µmol/kg. The LD50 in data set [2] (po, per os, read-out: LD50 os) came to 7200 µmol/kg.
In the case of `Nc1cccc(NC(=O)CCN2CCN(C(c3ccccc3)c3ccccc3)CC2)c1` [Compound 4, 3-(4-benzhydryl-1-piperazinyl)-N,3-aminophenylpropionamide], the “TXA2 I % (maximal inhibition percentage)” value in the data set with TXA2 is reported as 47%. For the same compound, the 50% effective dose (ED50) was found to be 0.4 µmol/kg in data set [3]; 0.21 µmol/kg in data set [4]; 8 µmol/kg in data set [1]; 0.04 µmol/kg in data set [5] (setting [6]); 0.08 µmol/kg in data set [5] (setting [7]). In addition, the 50% lethal dose (LD50) in data set [2] (po, per os, read-out: LD50 os) is 5000 µmol/kg.

These data come from patent publication US4675319A, “Antianaphylactic and antibronchospastic piperazinyl-(N-substituted phenyl)carboxamides, compositions and use” (Recordati S. A. Chemical and Pharmaceutical Company, priority 1985, dated 1987).
